Source: patent US20190119284A1, “ErbB Inhibitors and Uses Thereof” (The Regents of the University of California, priority 2016, published 2019)
Read-outs that look alike come from different tables or passages of the source.

Legend:
[1] = biological target: MAPKAPK-2 (Homo sapiens, UniProt P49137); experiment: Nanosyn in vitro kinase profiling: MAPKAPK-2; assay type: biochemical; conditions: for inhibition at 1 µM: compound at 1 μM
Experimental: (§1) This was confirmed by in vitro profiling against a panel of kinases, with compound 2 only showing potent inhibition of EGFR and Ab1 (Table 2).
(§2) In vitro Kinome Screen. In vitro profiling of compound 2 at 100 nM was conducted by Nanosyn.

[2] = biological target: T1, SGK1 (Homo sapiens, UniProt O00141); experiment: Nanosyn in vitro kinase profiling: SGK1; assay type: biochemical; conditions: for inhibition at 1 µM: compound at 1 μM
T1 sequence (O00141 1-431): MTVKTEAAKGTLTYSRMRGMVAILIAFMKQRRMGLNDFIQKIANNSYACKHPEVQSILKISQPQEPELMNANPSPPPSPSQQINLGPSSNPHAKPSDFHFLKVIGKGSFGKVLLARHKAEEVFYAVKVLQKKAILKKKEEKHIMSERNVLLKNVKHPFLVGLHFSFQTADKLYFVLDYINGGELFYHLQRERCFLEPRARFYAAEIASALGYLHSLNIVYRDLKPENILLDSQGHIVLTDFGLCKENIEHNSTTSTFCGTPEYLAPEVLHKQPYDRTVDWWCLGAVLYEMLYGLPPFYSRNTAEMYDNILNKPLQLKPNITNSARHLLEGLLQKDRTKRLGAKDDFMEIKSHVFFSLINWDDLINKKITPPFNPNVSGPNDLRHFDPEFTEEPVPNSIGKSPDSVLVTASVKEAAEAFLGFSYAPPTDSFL
Experimental: as §1, §2

[3] = biological target: FGFR1 (Homo sapiens, UniProt P11362); experiment: Nanosyn in vitro kinase profiling: FGFR1; assay type: biochemical; conditions: for inhibition at 1 µM: compound at 1 μM
Experimental: as §1, §2

[4] = biological target: CDK2 (Homo sapiens, UniProt P24941); experiment: Nanosyn in vitro kinase profiling: CDK2; assay type: biochemical; conditions: for inhibition at 1 µM: compound at 1 μM
Experimental: as §1, §2

[5] = biological target: ROCK1 (Homo sapiens, UniProt Q13464); experiment: Nanosyn in vitro kinase profiling: ROCK1; assay type: biochemical; conditions: for inhibition at 1 µM: compound at 1 μM
Experimental: as §1, §2

[6] = biological target: DAPK1 (Homo sapiens, UniProt P53355); experiment: Nanosyn in vitro kinase profiling: DAPK1; assay type: biochemical; conditions: for inhibition at 1 µM: compound at 1 μM
Experimental: as §1, §2

[7] = biological target: T2, 2YF-YVMA/3wt + NRG Ba/F3 cells (Homo sapiens, UniProt P04626, DUP772-775/Y1005F/Y1023F/Y1112F/Y1127F/Y1139F/Y1196F/Y1221F/Y1222F/Y1248F, cells depend on it); experiment: Ba/F3 proliferation assay, 2YF-YVMA/3wt + NRG; assay type: cell-based
T2 construct: reported HER2 oncogenic mutants in the HER2YF construct
Experimental: For the 2YF/3wt cells, the parental cells were first transduced with HER3 according to the protocol above and were then spun down at 500×g for 5 min and re-suspended in media supplemented with 10 ng/mL IL-3 and 3 μg/mL puromycin (Invitrogen). Cells were maintained in these conditions for seven days, passaging as required. After seven days the cells were spun down, washed with fresh media, and then used for a subsequent round of transduction according to the protocol above with HER2YF virus. […] The cells were maintained in these conditions for seven days, passaging as required. After seven days the cells were spun down, washed with fresh media, and then suspended in media supplemented with 10 ng/mL of NRG. Cells were maintained in these conditions for seven days to select for a NRG dependent population of 2YF/3wt Ba/F3 cells that were then maintained as described above. The same protocol was used for the 2YF-L755S/3wt, 2YF-YVMA/3wt, and 2YF-VC/3wt cell lines using the indicated constructs.
Proliferation Assays. […] The following day media was changed to fresh media that contained either DMSO or the indicated concentration of drug plus NRG (50 ng/mL final concentration) as indicated. […] For all normalized assays, proliferation was normalized to the DMSO control condition. […]

[8] = biological target: 2YF/3wt + NRG Ba/F3 cells (HER2YF/HER3wt) (Homo sapiens, UniProt P04626, Y1005F/Y1023F/Y1112F/Y1127F/Y1139F/Y1196F/Y1221F/Y1222F/Y1248F, cells depend on it); experiment: Ba/F3 proliferation assay, 2YF/3wt + NRG; assay type: cell-based
Outline: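 Ba/F3 cells stably expressing HER3 and HER2 with 9 C-terminal Tyr→Phe mutations, selected for NRG dependence after IL-3 withdrawal. Cells were given DMSO or compound plus NRG (50 ng/mL final); proliferation normalized to DMSO, fit by log(inhibitor) vs response with variable slope.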

[9] = system: HER2 and HER3 signaling in NCI-H1781 cells; experiment: HER2 and HER3 signaling in NCI-H1781 cells (immunoblot); assay type: cell-based; conditions: NCI-H1781 cells (HER2 kinase domain insertion); 15 min after drug
Experimental: Immunoblotting. Cells were grown in 6 well plates and treated according to the indicated conditions at which point the media was aspirated, cells were washed with 1 mL of cold PBS, which was then aspirated and the plates were frozen at −80° C. The frozen cells were thawed on the plates in a buffer containing 50 mM Tris pH 7.5, 150 mM NaCl, 1 mM EDTA, and 1% Triton X-100 supplemented with 1× phosphatase (PhoSTOP, Roche) and 1× protease (complete-mini tablets, Roche) inhibitors. Lysates were scraped, transferred to Eppendorf tubes, and cleared by centrifugation at 20,000×g for 20 min at 4° C. The clarified lysates were transferred to chilled, clean tubes, and normalized for protein concentration by Bradford (Bio-Rad). The normalized lysates were diluted with Laemmli loading buffer, and 10 μg of total protein was run on a 4-12% gradient gel (Invitrogen), which was then transferred to […] nitrocellulose (Bio-Rad) and analyzed using the indicated primary antibodies according to the manufacturer's recommendations. Primary antibodies were detected using IRDye secondary antibodies (Li-Cor) according to the manufacturer's recommendations and scanned on an Odyssey imager (Li-Cor). Scanned images were cropped and assembled in Adobe Illustrator 6.

Chain of ROCK1 (Q13464 whole entry, species assumed): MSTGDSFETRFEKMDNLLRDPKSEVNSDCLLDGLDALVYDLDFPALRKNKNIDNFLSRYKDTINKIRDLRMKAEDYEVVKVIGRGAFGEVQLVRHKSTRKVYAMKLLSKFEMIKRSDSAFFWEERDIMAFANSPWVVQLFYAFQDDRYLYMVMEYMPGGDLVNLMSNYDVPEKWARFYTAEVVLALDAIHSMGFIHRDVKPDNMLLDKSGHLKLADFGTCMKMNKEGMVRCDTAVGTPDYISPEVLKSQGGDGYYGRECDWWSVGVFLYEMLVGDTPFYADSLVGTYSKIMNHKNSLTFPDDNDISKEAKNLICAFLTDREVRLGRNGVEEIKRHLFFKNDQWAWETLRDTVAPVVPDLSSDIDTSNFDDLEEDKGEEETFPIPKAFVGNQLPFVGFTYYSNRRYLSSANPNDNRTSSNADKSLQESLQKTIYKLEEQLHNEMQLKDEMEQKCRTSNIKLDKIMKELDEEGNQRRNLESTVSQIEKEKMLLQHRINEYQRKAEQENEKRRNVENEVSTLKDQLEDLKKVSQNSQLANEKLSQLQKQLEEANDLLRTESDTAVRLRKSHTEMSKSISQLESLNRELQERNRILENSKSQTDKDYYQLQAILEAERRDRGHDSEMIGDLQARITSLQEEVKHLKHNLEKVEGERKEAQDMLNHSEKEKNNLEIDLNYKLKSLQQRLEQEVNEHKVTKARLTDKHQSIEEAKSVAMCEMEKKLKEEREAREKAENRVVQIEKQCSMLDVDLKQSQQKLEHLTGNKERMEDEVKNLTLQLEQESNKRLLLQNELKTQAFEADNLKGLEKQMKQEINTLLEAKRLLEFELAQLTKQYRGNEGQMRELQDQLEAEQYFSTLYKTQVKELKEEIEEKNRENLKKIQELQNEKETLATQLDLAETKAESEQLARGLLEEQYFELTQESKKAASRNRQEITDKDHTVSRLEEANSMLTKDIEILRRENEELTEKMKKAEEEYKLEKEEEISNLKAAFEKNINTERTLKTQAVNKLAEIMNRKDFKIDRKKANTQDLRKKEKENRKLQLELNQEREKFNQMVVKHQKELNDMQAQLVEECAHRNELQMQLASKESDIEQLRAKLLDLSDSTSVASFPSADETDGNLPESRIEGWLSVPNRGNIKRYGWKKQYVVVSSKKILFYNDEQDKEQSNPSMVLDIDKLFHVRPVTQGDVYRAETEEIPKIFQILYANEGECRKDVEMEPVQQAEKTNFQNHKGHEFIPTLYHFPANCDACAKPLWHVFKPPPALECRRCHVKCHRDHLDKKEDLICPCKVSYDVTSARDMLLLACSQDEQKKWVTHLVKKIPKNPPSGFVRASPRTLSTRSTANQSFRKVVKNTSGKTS
Chain of DAPK1 (P53355 whole entry, species assumed): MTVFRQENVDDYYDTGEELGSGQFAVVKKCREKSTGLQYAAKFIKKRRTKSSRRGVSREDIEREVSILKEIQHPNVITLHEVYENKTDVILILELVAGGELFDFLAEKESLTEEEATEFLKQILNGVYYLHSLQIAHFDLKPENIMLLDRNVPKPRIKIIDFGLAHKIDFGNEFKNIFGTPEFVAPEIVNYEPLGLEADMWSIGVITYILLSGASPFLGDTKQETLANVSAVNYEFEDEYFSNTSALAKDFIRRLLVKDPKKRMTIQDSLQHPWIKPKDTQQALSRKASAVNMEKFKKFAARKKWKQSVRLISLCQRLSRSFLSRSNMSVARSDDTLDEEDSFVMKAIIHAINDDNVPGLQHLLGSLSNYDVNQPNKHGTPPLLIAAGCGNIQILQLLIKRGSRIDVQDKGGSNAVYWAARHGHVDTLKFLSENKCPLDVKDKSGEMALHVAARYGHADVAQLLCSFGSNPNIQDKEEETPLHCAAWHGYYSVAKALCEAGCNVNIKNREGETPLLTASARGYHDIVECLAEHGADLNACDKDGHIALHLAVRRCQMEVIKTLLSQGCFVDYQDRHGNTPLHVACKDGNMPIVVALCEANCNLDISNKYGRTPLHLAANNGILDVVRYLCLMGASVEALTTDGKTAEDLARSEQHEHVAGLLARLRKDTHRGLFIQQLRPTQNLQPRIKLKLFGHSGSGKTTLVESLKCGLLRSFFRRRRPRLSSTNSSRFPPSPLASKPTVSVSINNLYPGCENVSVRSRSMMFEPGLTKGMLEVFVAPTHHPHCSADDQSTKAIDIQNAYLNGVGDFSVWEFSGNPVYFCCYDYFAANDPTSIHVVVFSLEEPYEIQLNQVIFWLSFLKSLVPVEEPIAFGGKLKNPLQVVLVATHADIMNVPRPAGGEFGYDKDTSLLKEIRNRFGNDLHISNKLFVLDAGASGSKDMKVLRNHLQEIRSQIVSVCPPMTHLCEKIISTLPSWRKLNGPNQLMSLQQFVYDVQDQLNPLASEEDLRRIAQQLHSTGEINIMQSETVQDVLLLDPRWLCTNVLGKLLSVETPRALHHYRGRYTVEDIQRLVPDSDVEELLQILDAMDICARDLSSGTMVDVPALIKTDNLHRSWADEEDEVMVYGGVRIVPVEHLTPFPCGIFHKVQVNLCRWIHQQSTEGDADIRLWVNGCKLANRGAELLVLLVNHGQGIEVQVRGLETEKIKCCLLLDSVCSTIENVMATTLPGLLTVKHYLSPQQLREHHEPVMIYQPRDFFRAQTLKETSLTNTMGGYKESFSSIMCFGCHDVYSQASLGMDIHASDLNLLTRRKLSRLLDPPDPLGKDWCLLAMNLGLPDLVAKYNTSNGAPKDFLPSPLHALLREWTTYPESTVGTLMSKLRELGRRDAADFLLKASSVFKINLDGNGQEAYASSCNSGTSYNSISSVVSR
Chain of MAPKAPK-2 (P49137 whole entry, species assumed): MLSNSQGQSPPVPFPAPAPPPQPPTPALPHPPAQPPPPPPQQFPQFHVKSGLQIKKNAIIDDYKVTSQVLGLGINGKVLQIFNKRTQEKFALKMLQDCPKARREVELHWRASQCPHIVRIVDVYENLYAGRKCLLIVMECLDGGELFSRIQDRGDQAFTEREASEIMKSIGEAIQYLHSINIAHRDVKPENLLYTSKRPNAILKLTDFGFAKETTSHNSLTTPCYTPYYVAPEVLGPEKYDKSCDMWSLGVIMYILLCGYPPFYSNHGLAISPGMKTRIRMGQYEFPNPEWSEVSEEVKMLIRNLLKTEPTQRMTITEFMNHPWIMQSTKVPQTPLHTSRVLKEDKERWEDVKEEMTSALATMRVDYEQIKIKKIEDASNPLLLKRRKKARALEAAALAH
Chain of FGFR1 (P11362 22-822): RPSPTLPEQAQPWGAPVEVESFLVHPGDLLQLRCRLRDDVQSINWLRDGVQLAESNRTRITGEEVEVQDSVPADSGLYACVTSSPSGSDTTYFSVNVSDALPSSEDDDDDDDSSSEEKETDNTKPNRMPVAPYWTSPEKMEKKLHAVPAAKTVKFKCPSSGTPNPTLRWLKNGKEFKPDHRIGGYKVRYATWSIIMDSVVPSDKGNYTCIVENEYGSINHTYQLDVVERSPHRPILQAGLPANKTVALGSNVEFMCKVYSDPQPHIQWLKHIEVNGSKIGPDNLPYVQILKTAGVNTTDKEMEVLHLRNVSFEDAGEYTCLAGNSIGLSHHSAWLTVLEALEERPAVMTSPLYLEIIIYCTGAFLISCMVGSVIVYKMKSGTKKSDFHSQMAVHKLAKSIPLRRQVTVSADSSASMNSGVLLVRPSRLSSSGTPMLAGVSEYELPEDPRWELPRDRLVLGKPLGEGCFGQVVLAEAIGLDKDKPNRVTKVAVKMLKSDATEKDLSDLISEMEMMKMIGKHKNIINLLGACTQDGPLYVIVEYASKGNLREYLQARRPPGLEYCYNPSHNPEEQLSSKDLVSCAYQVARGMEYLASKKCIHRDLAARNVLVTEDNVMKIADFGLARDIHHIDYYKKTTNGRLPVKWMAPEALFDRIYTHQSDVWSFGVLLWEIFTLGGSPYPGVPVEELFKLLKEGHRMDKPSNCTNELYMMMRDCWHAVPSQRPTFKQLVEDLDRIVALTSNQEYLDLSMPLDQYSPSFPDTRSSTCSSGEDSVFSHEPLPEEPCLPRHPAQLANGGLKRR

inhibition at 0.1 µM ([1]; compound at 100 nM) [%]	inhibition at 1 µM [1] [%]	inhibition at 0.1 µM ([2]; compound at 100 nM) [%]	inhibition at 1 µM [2] [%]	inhibition at 0.1 µM ([3]; compound at 100 nM) [%]	inhibition at 1 µM [3] [%]	inhibition at 0.1 µM ([4]; compound at 100 nM) [%]	inhibition at 1 µM [4] [%]	inhibition at 0.1 µM ([5]; compound at 100 nM) [%]	inhibition at 1 µM [5] [%]	inhibition at 0.1 µM ([6]; compound at 100 nM) [%]	inhibition at 1 µM [6] [%]	GI50 ([7]; Table 4; ± S.D., n = 2; read-out: IC50, 2YF-YVMA/3wt + NRG) [nM]	GI50 ([8]; Table 4; ± S.D., n = 3; 48 h Cell Titer Glo; read-out: IC50, 2YF/3wt + NRG) [nM]	Structure (SMILES)	inhibition of HER2/HER3 signaling [9]	GI50 ([7]; read-out: IC50, 2YF-YVMA/3wt + NRG; Table 4; ± S.D., n = 2) [nM]	GI50 ([8]; read-out: IC50, 2YF/3wt + NRG; Table 4; ± S.D., n = 3; 48 h Cell Titer Glo) [nM]
0.12	0.575	14.4	53.4	48.3	86.3	4.14	17.6	0.155	1.16	-0.52	1.43			COc1ccc(-c2ccco2)cc1Nc1ncnc2[nH]nc(-c3ccco3)c12 [compound 2, 3-(furan-2-yl)-N-(5-(furan-2-yl)-2-methoxyphenyl)-1H-pyrazolo[3,4-d]pyrimidin-4-amine]			
	-6		31		93		10		16		-1	11.4 ± 0.1	6.8 ± 0.2	COc1ccc(-c2ccoc2)cc1Nc1ncnc2[nH]cc(-c3cc[nH]n3)c12 [compound 3, N-(5-(furan-3-yl)-2-methoxyphenyl)-5-(1H-pyrazol-3-yl)-7H-pyrrolo[2,3-d]pyrimidin-4-amine]	rapidly and fully inhibited		
														CS(=O)(=O)CCNCc1ccc(-c2ccc3ncnc(Nc4ccc(OCc5cccc(F)c5)c(Cl)c4)c3c2)o1 [lapatinib]	unable to fully inhibit signaling	> 10000	63.6 ± 12.5
